Assay results published in patent publication US11932870B2, “Compositions and methods for immune cell modulation in adoptive immunotherapies” (Fate Therapeutics, Inc., priority 2016, dated 2024).
Structures can show the parent of a compound that is named as a salt.

How the values were obtained:
viable CD4+ population = test: T cell compound screen: CCR7+CD62L+ cells in the viable CD4+ population (flow cytometry); format: cell-based, human; details: 10 μM, about 6 days; for CD4 Hit: anti-CD3/anti-CD28 beads, hit = Z-score > +2 for percent or absolute number CCR7+CD62L+ in CD4+; for number or ratio of cells co-expressing CCR7 and CD62L: viable CD4+ population
From the text: (§1) In Vitro T Cell Culture. Fresh leukopaks (AllCells, Alameda, CA) were obtained from healthy donors, from which T cells were negatively selected using the EasySep Human T cell Enrichment Kit (Stem Cell Technologies, Vancouver, Canada). The freshly isolated T cells were aliquoted and cryopreserved. On the day the screens were initiated, T cells were thawed and washed into X-Vivo 15 with 5% human AB serum, IL-2, pen/strep, and additional supplements. Cells were dispensed into flat-bottom 384-well plates at 5×10^5 cells/ml with anti-CD3/anti-CD28 beads. Individual compounds were added at a final concentration of 10 μM to each well from column 3 to column 22 of each plate. Positive and negative controls were added to additional wells. Cells were incubated for about 6 days at 37 degrees with 5% CO2.
(§2) Flow Cytometry. On Day 6 of culture, cells were stained with a fixable viability marker and fluorophore-conjugated antibodies: CD3, CD4, CD8, CD45RA, CD45RO, CD62L, CCR7, CD27, and CD122 (BD Biosciences, San Jose, CA; and BioLegend, San Diego, CA). Fluorescent absolute counting beads (Spherotech, Lake Forest, IL) were added just prior to acquisition. Data acquisition was performed on a BD Fortessa X-20 (BD Biosciences) and data were analyzed using Treestar software (FlowJo, Ashland, OR) and Spotfire (Tibco, Boston, MA).
(§3) These cells are characterized by expression of CCR7 and CD62L. Therefore, cells co-expressing both of these identifying markers were evaluated. Within the viable CD4+ population and viable CD8+ population, the percent of cells co-expressing CCR7 and CD62L was determined. The expression of either CD62L or CCR7 on T cells, as indicative of the desired T cell subsets, have been described as having favorable functional characteristics for CAR-T cell therapy, and potentially other adoptive T cell therapies.
(§4) The number of events in each of these gates relative to the number of absolute counting beads in each sample was calculated, defining a measure of the absolute number of naïve, stem cell memory, or central memory T cells within the CD4+ and/or CD8+ populations. A z-Score relative to the screened compound samples within each 384-well plate was calculated for each of these four values: 1) percent CCR7+CD62L+in CD4+, 2) percent CCR7+CD62L+in CD8+, 3) absolute relative number of CCR7+CD62L+in CD4+, and 4) absolute number of CCR7+CD62L+in CD8+(FIGS. 1A and 1i). Z-scores were also calculated for the percent viability of all cells within each sample and the relative absolute number of cells within each sample. A “Z-Score” is a statistical measurement of a score's relationship to the mean in a group of scores. AZ-score of 0 means the score is the same as the mean. AZ-score can also be positive or negative, indicating whether it is above or below the mean and by how many standard deviations.

viable CD8+ population = test: T cell compound screen: CCR7+CD62L+ cells in the viable CD8+ population (flow cytometry); format: cell-based, human; details: 10 μM, about 6 days; for CD8 Hit: anti-CD3/anti-CD28 beads, hit = Z-score > +2 for percent or absolute number CCR7+CD62L+ in CD8+; for number or ratio of cells co-expressing CCR7 and CD62L: viable CD8+ population
From the text: as §1, §2, §3, §4

Structure (SMILES) | CD4 Hit (viable CD4+ population) | number or ratio of cells co-expressing CCR7 and CD62L (viable CD4+ population) | CD8 Hit (viable CD8+ population) | number or ratio of cells co-expressing CCR7 and CD62L (viable CD8+ population)
CCC(CO)Nc1nc(NCc2ccccc2)c2ncn(C(C)C)c2n1 (stereo in doubt) [Roscovitine, (S)-Isomer] | CD4 | increased | – | –
CCCc1c(-c2ccc(O)cc2)nn(-c2ccc(O)cc2)c1-c1ccc(O)cc1 [1,3,5-tris(4-hydroxyphenyl)-4-propyl-1H-pyrazole] | CD4 | increased | – | –
N.S=C(S)N1CCCC1 [1-Pyrrolidinecarbodithioic acid, ammonium salt] | CD4 | increased | – | –
CN(C)[C@@H]1C(=O)C(C(N)=O)=C(O)[C@@]2(O)C(=O)C3=C(O)c4c(O)ccc(Cl)c4[C@@H](O)[C@H]3C[C@@H]12.Cl [2-Naphthacenecarboxamide, 7-chloro-4-(dimethylamino)-1,4,4a,5,5a,6,11,12a-octahy] | – | – | CD8 | increased
Nc1ncn([C@@H]2O[C@H](CO)[C@@H](O)[C@H]2O)c(=O)n1 [5-Azacytidine] | CD4 | increased | CD8 | increased
Sc1ncnc2nc[nH]c12 [6-Mercaptopurine] | CD4 | increased | CD8 | increased
Oc1c(Cl)cc(Cl)c2cccnc12 [8-Quinolinol, 5,7-dichloro-] | CD4 | increased | CD8 | increased
Oc1c(I)cc(Cl)c2cccnc12 [8-Quinolinol, 5-chloro-7-iodo-] | CD4 | increased | CD8 | increased
CC[n+]1c(/C=C/C=C2/N(C)c3ccccc3C2(C)C)sc2ccccc21.[I-] [AC-93253 iodide] | CD4 | increased | CD8 | increased
COc1ccc(-c2cc3nccn3c(Nc3ncccc3C(N)=O)n2)cc1OC [BAY 61-3606] | CD4 | increased | – | –
COc1cc2nc(N3CCCN(C)CC3)nc(NC3CCN(Cc4ccccc4)CC3)c2cc1OC [BIX01294] | CD4 | increased | – | –
O=C(O)CN(CCN(CC(=O)O)CC(=O)O)CCN(CC(=O)O)CC(=O)O [Diethylenetriaminepentaacetic acid, pentasodium] | CD4 | increased | CD8 | increased
CC[N+](C)(C)c1cccc(O)c1 [Edrophonium chloride] | – | – | CD8 | increased
C[C@]12CC[C@@H]3c4ccc(O)cc4C[C@@H](CCCCCCCCC[S+]([O-])CCCC(F)(F)C(F)(F)F)[C@H]3[C@@H]1CC[C@@H]2O (stereo partly drawn) [Fulvestrant] | – | – | CD8 | increased
CC(C)C1CCC2(CO2)C2C(=O)OCC(C(=O)O)=CC12 (stereo not drawn) [Heptelidic acid] | CD4 | increased | CD8 | increased
O=C(N/N=C/c1ccc([N+](=O)[O-])o1)c1ccc(O)cc1 [Nifuroxazide] | – | – | CD8 | increased
C=CCc1cccc(/C=N/NC(=O)CN2CCN(Cc3ccccc3)CC2)c1O [PAC-1] | CD4 | increased | – | –
Oc1cccc(-c2nc(N3CCOCC3)c3oc4ncccc4c3n2)c1 [PI-103] | CD4 | increased | CD8 | increased
C=CC1=C(C)c2cc3[nH]c(cc4nc(cc5[nH]c(cc1n2)c(C)c5CCC(=O)O)C(CCC(=O)O)=C4C)c(C)c3C=C [Protoporphyrin IX disodium] | CD4 | increased | – | –
CN(C)c1ccc(C=C2C(=O)Nc3ccccc32)cc1 [SU 4312] | – | – | CD8 | increased
CN[C@H]1CC[C@@H](c2ccc(Cl)c(Cl)c2)c2ccccc21 [Sertraline] | CD4 | – | CD8 | –
CCCc1nc2c(C)cc(-c3nc4ccccc4n3C)cc2n1Cc1ccc(-c2ccccc2C(=O)O)cc1 [Telmisartan] | CD4 | increased | – | –
CC(C)(C)c1ccc(C(O)CCCN2CCC(C(O)(c3ccccc3)c3ccccc3)CC2)cc1 (stereo not drawn) [Terfenadine] | CD4 | increased | – | –
C/C=C(/C)C(=O)O[C@H]1C(C)=C2[C@H]([C@@H]1OC(=O)CCCCCCC)[C@@](C)(OC(C)=O)C[C@H](OC(=O)CCC)[C@@]1(O)[C@H]2OC(=O)[C@@]1(C)O [Thapsigargin] | – | – | CD8 | increased
O=C(O)Cc1cc(I)c(Oc2ccc(O)c(I)c2)c(I)c1 [Tiratricol] | CD4 | increased | CD8 | increased
NC1CCN(c2nc3c(cc2F)c(=O)c(C(=O)O)cn3-c2ccc(F)cc2F)C1 (stereo not drawn) [Tosufloxacin hydrochloride] | CD4 | increased | – | –
N#CC(=C(/N)Sc1ccccc1N)/C(C#N)=C(\N)Sc1ccccc1N [U0126] | CD4 | increased | – | –
